Assay results published in patent US20230143612A1 (Arbutus Biopharma Corporation, priority 2020, published 2023).

Target: PD-L1 His protein / PD-1 Fc protein (Homo sapiens, UniProt Q9NZQ7)
Assay: HTRF Assay (PD-1/PD-L1 interaction)
Type: binding
Settings: PD-L1 His 6 nM, PD-1 Fc 6 nM
In short: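 HTRF: PD-L1 His (6 nM final), compound (3-fold dilutions, 20 μM to 0.001 μM final) and PD-1 Fc (6 nM final) preincubated 15 min at room temperature. Anti-human IgG-XL665 and anti-6HIS Tb cryptate (mixed at 6.7 nM and 0.35 nM) then added for 1 h at room temperature before reading.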

Sequence of PD-L1 His protein / PD-1 Fc protein (Q9NZQ7 19-238 limits assumed): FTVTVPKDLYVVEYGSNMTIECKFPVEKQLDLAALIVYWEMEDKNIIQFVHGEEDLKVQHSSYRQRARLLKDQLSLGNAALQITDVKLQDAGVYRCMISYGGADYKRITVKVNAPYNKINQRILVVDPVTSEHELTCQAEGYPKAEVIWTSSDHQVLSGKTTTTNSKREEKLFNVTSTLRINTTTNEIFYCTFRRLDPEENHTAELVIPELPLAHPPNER

SMILES | IC50 [nM]
COC(=O)C1CN(Cc2cnc3cc(-c4cccc(-c5cccc(-c6ccc(CNC[C@@H]7CCC(=O)N7)c(OC)n6)c5Cl)c4Cl)ccn3c2=O)C1 [Example 162, (S)-Methyl 1-((8-(2,2′-dichloro-3′-(6-methoxy-5-((((5-oxopyrrolidin-2-yl)methyl)amino)methyl)pyridin-2-yl)-[1,1′-biphenyl]-3-yl)-4-oxo-4H-pyrido[1,2-a]pyrimidin-3-yl)methyl)azetidine-3-carboxylate] | 3.8
COc1nc(-c2cccc(-c3cccc(-c4ccn5c(=O)c(CN[C@H]6CCOC[C@@H]6O)cnc5c4)c3Cl)c2Cl)ccc1CNC[C@@H]1CCC(=O)N1 [Example 163] | 0.8
COc1nc(-c2cccc(-c3cccc(-c4ccn5c(=O)c(CNC[C@@H]6CCC(=O)N6)c(C)nc5c4)c3Cl)c2Cl)ccc1CNC[C@@H]1CCC(=O)N1 [Example 164, 8-(2,2′-Dichloro-3′-(6-methoxy-5-(((((S)-5-oxopyrrolidin-2-yl)methyl)amino)methyl)pyridin-2-yl)-[1,1′-biphenyl]-3-yl)-2-methyl-3-(((((S)-5-oxopyrrolidin-2-yl)methyl)amino)methyl)-4H-pyrido[1,2-a]pyrimidin-4-one] | 1.3
COc1nc(-c2cccc(-c3cccc(-c4ccn5c(=O)c(CN6CC[C@H](O)C6)cnc5c4)c3Cl)c2Cl)ccc1CN1CC[C@H](O)C1 [Example 165, 8-(2,2′-Dichloro-3′-(5-(((S)-3-hydroxypyrrolidin-1-yl)methyl)-6-methoxypyridin-2-yl)-[1,1′-biphenyl]-3-yl)-3-(((S)-3-hydroxypyrrolidin-1-yl)methyl)-4H-pyrido[1,2-a]pyrimidin-4-one] | 0.1
COc1nc(-c2cccc(-c3cccc(-c4ccn5c(=O)c(CN6C[C@H](O)C[C@H]6C(=O)O)cnc5c4)c3Cl)c2Cl)ccc1CNC[C@@H]1CCC(=O)N1 [Example 166, (2S,4R)-1-((8-(2,2′-Dichloro-3′-(6-methoxy-5-(((((S)-5-oxopyrrolidin-2-yl)methyl)amino)methyl)pyridin-2-yl)-[1,1′-biphenyl]-3-yl)-4-oxo-4H-pyrido[1,2-a]pyrimidin-3-yl)methyl)-4-hydroxypyrrolidine-2-carboxylic acid] | 0.1
COC(=O)c1cnc(-c2cnc3cc(-c4cccc(-c5cccc(-c6ccc(CNC[C@@H]7CCC(=O)N7)c(OC)n6)c5Cl)c4Cl)ccn3c2=O)[nH]1 [Example 167, methyl (S)-2-(8-(2,2′-dichloro-3′-(6-methoxy-5-((((5-oxopyrrolidin-2-yl)methyl)amino)methyl)pyridin-2-yl)-[1,1′-biphenyl]-3-yl)-4-oxo-4H-pyrido[1,2-a]pyrimidin-3-yl)-1H-imidazole-5-carboxylate] | 0.5
COc1nc(-c2cccc(-c3cccc(-c4ccn5c(=O)c(CN6CCC[C@@]6(C)C(=O)O)cnc5c4)c3Cl)c2Cl)ccc1CNCCO [Example 168, (S)-1-((8-(2,2′-Dichloro-3′-(5-(((2-hydroxyethyl)amino)methyl)-6-methoxypyridin-2-yl)-[1,1′-biphenyl]-3-yl)-4-oxo-4H-pyrido[1,2-a]pyrimidin-3-yl)methyl)-2-methylpyrrolidine-2-carboxylic acid] | 0.2
COc1nc(-c2cccc(-c3cccc(-c4ccn5c(=O)c(CN6CC[C@@H](O)C6)cnc5c4)c3Cl)c2Cl)ccc1CNC[C@@H]1CCC(=O)N1 [Example 169, 8-(2,2′-Dichloro-3′-(6-methoxy-5-(((((S)-5-oxopyrrolidin-2-yl)methyl)amino)methyl)pyridin-2-yl)-[1,1′-biphenyl]-3-yl)-3-(((R)-3-hydroxypyrrolidin-1-yl)methyl)-4H-pyrido[1,2-a]pyrimidin-4-one] | 0.4
COc1nc(-c2cccc(-c3cccc(-c4ccn5c(=O)c(CNC[C@@H]6CCC(=O)N6)cnc5c4)c3Cl)c2Cl)ccc1CN1CC[C@@H](O)C1 [Example 170, 8-(2,2′-Dichloro-3′-(5-(((R)-3-hydroxypyrrolidin-1-yl)methyl)-6-methoxypyridin-2-yl)-[1,1′-biphenyl]-3-yl)-3-(((((S)-5-oxopyrrolidin-2-yl)methyl)amino)methyl)-4H-pyrido[1,2-a]pyrimidin-4-one] | 0.3
COC(=O)C1CN=C(c2cnc3cc(-c4cccc(-c5cccc(-c6ccc(CNC[C@@H]7CCC(=O)N7)c(OC)n6)c5Cl)c4Cl)ccn3c2=O)N1 (stereo partly drawn) [Example 171, Methyl 2-(8-(2,2′-dichloro-3′-(6-methoxy-5-(((((S)-5-oxopyrrolidin-2-yl)methyl)amino)methyl)pyridin-2-yl)-[1,1′-biphenyl]-3-yl)-4-oxo-4H-pyrido[1,2-a]pyrimidin-3-yl)-4,5-dihydro-1H-imidazole-5-carboxylate] | 0.2
COc1nc(-c2cccc(-c3cccc(-c4ccn5c(=O)c(CN6CC[C@H](C(=O)O)C6)cnc5c4)c3Cl)c2Cl)ccc1CNCCO [Example 172, (S)-1-((8-(2,2′-Dichloro-3′-(5-(((2-hydroxyethyl)amino)methyl)-6-methoxypyridin-2-yl)-[1,1′-biphenyl]-3-yl)-4-oxo-4H-pyrido[1,2-a]pyrimidin-3-yl)methyl)pyrrolidine-3-carboxylic acid] | 0.3
N#CCCOc1cc(/C=C/c2cccc(-c3cccc(-c4ccn5c(=O)c(CNC[C@@H]6CCC(=O)N6)cnc5c4)c3Cl)c2Cl)c(Cl)cc1CN1CC[C@H](C(=O)O)C1 [Example 173, (S)-1-(5-Chloro-2-(2-cyanoethoxy)-4-((E)-2-(2,2′-dichloro-3′-(4-oxo-3-(((((S)-5-oxopyrrolidin-2-yl)methyl)amino)methyl)-4H-pyrido[1,2-a]pyrimidin-8-yl)-[1,1′-biphenyl]-3-yl)vinyl)benzyl)pyrrolidine-3-carboxylic acid] | 0.4
COc1nc(-c2cccc(-c3cccc(-c4ccn5c(=O)c(CNC[C@@H]6CCC(=O)N6)cnc5c4)c3Cl)c2Cl)ccc1CN[C@H]1CCOC[C@@H]1O [Example 174, 8-(2,2′-Dichloro-3′-(5-((((3R,4S)-3-hydroxytetrahydro-2H-pyran-4-yl)amino)methyl)-6-methoxypyridin-2-yl)-[1,1′-biphenyl]-3-yl)-3-(((((S)-5-oxopyrrolidin-2-yl)methyl)amino)methyl)-4H-pyrido[1,2-a]pyrimidin-4-one] | 0.8
COc1nc(-c2cccc(-c3cccc(-c4ccn5c(=O)c(CNC[C@@H]6CCC(=O)N6)cnc5c4)c3Cl)c2Cl)ccc1CN1CC[C@H](O)C1 [Example 175, 8-(2,2′-Dichloro-3′-(5-(((S)-3-hydroxypyrrolidin-1-yl)methyl)-6-methoxypyridin-2-yl)-[1,1′-biphenyl]-3-yl)-3-(((((S)-5-oxopyrrolidin-2-yl)methyl)amino)methyl)-4H-pyrido[1,2-a]pyrimidin-4-one] | 0.1
COc1c(CNC[C@@H]2CCC(=O)N2)ccc2nc(-c3cccc(-c4cccc(-c5ccn6c(=O)c(CNC[C@@H]7CCC(=O)N7)cnc6c5)c4Cl)c3Cl)ccc12 [Example 176, 8-(2,2′-Dichloro-3′-(5-methoxy-6-(((((S)-5-oxopyrrolidin-2-yl)methyl)amino)methyl)quinolin-2-yl)-[1,1′-biphenyl]-3-yl)-3-(((((S)-5-oxopyrrolidin-2-yl)methyl)amino)methyl)-4H-pyrido[1,2-a]pyrimidin-4-one] | 250
